Measured values published in patent US20250092056A1, “URACIL DERIVATIVES HAVING VIRUS REPLICATION INHIBITORY ACTIVITY AND PHARMACEUTICAL COMPOSITION COMPRISING THE SAME” (Shionogi & Co., Ltd., priority 2022, published 2025).
Read-outs that look alike come from different tables or passages of the source.

Experiments:
[1] = target: Recombinant SARS-CoV-2 3CL Protease (Severe acute respiratory syndrome coronavirus 2 (2019-nCoV) (SARS-CoV-2), UniProt P0DTD1); assay: biochemical; format: biochemical; conditions: 50% SARS-CoV-2 3CL protease inhibitory concentration; read-out: IC50
SARS-CoV-2 = assay: Cytopathic effect (CPE) suppression effect confirmation test using HEK293T/ACE2-TMPRSS2 cells; format: cell-based
[2] = Severe acute respiratory syndrome coronavirus 2, HEK-293T, 72 h, HEK293T/ACE2-TMPRSS2 cells, CPE suppression, CellTiter-Glo 2.0 after 3 days culture, read-out: EC50 (50% SARS-CoV-2 infected cell death inhibitory concentration), class
[3] = Severe acute respiratory syndrome coronavirus 2, HEK-293T, 72 h, read-out: EC50 (50% SARS-CoV-2 infected cell death inhibitory concentration), HEK293T/ACE2-TMPRSS2 cells, CPE suppression, CellTiter-Glo 2.0 after 3 days culture
[4] = Severe acute respiratory syndrome coronavirus 2, HEK-293T, 72 h, read-out: EC50 (50% SARS-CoV-2 infected cell death inhibitory concentration), class, HEK293T/ACE2-TMPRSS2 cells, CPE suppression, CellTiter-Glo 2.0 after 3 days culture

SMILES	IC50 [1] [µM]	EC50 (SARS-CoV-2; [2]) [µM]	EC50 (SARS-CoV-2; [3]) [µM]	EC50 (SARS-CoV-2; [4]) [µM]	EC50 (SARS-CoV-2; read-out: EC50 (50% SARS-CoV-2 infected cell death inhibitory concentration), class, HEK293T/ACE2-TMPRSS2 cells, CPE suppression, CellTiter-Glo 2.0 after 3 days culture) [µM]
N#CCn1c(N2CCC(O)(C(F)(F)F)CC2)c(-c2ccc(F)c(Cl)c2)c(=O)n(-c2cnc3cc(Cl)ccn23)c1=O [Compound I-141]	0.01 to 0.1	< 0.1	–	–	–
N#CCn1c(N2CC(O)(C(F)(F)F)C2)c(-c2ccc(F)c(Cl)c2)c(=O)n(-c2cncc(Cl)c2)c1=O [Compound I-142]	0.00046	–	0.00335	–	–
N#CCn1c(N2CC3(CCOC3)C2)c(Cc2cc(F)c(F)c(F)c2)c(=O)n(-c2nsc3ccccc23)c1=O [Compound I-143]	> 0.1	–	–	1 to 5	–
N#CCn1c(N2CC3(CCOC3)C2)c(Cc2cc(F)c(F)c(F)c2)c(=O)n(-c2cnc3cccnn23)c1=O [Compound I-144]	> 0.1	–	–	0.1 to 1	–
N#CCn1c(N2CC3(CCOC3)C2)c(Cc2cc(F)c(F)c(F)c2)c(=O)n(-c2cnc3cc(F)ccn23)c1=O [Compound I-145]	0.01 to 0.1	0.1 to 1	–	–	–
N#CCn1c(N2C[C@H]3C[C@@H]2CN3)c(-c2ccc(F)c(Cl)c2)c(=O)n(-c2cncc(Cl)c2)c1=O [Compound I-146]	< 0.01	–	–	0.1 to 1	–
N#CCn1c(N2CC3(CCOC3)C2)c(-c2ccc(F)c(Cl)c2)c(=O)n(-c2cnc3cc(F)ccn23)c1=O [Compound I-147]	< 0.01	–	–	< 0.1	–
N#CCn1c(N2CCC(F)(F)C2)c(-c2ccc(F)c(Cl)c2)c(=O)n(-c2cncc(Cl)c2)c1=O [Compound I-148]	< 0.01	–	–	< 0.1	–
N#CCn1c(N2CC3(C2)CC(F)(F)C3)c(-c2ccc(F)c(Cl)c2)c(=O)n(-c2cnc3cc(F)ccn23)c1=O [Compound I-149]	< 0.01	–	–	< 0.1	–
N#CCn1c(N2CCC(O)(C(F)(F)F)CC2)c(-c2ccc(F)c(Cl)c2)c(=O)n(-c2cnc3cc(F)ccn23)c1=O [Compound I-150]	< 0.01	–	–	< 0.1	–
N#CCn1c(N2CC(F)(C3CC3)C2)c(-c2ccc(F)c(Cl)c2)c(=O)n(-c2cnc3cc(F)ccn23)c1=O [Compound I-151]	< 0.01	–	–	< 0.1	–
N#CCn1c(N2CC3(CCCO3)C2)c(-c2ccc(F)c(Cl)c2)c(=O)n(-c2cnc3cc(F)ccn23)c1=O [Compound I-152]	< 0.01	–	–	< 0.1	–
N#CCn1c(N2CCC(C(F)(F)F)CC2)c(-c2ccc(F)c(Cl)c2)c(=O)n(-c2cnc3cc(F)ccn23)c1=O [Compound I-153]	< 0.01	–	–	< 0.1	–
N#CCn1c(N2Cc3ccccc3C2)c(Cc2cc(F)c(F)c(F)c2)c(=O)n(-c2nnc3ccccn23)c1=O [Compound I-156]	0.01 to 0.1	< 0.1	–	–	–
Cn1c(-n2c(=O)c(Cc3cc(F)c(F)c(F)c3)c(N3Cc4ccccc4C3)n(CC#N)c2=O)cc(=O)n1C [Compound I-157]	> 0.1	–	–	1 to 5	–
Cc1cc(-n2c(=O)c(Cc3cc(F)c(F)c(F)c3)c(N3Cc4ccccc4C3)n(CC#N)c2=O)cc(=O)[nH]1 [Compound I-159]	0.01 to 0.1	0.1 to 1	–	–	–
Cc1cnnc(-n2c(=O)c(-c3ccc(F)c(Cl)c3)c(N3CC4(CCOC4)C3)n(CC#N)c2=O)c1 [Compound I-160]	< 0.01	–	–	< 0.1	–
Cc1cc(-n2c(=O)c(-c3ccc(F)c(Cl)c3)c(N3CC4(CCOCC4)C3)n(CC#N)c2=O)cc(=O)[nH]1 [Compound I-161]	< 0.01	–	–	1 to 5	–
Cc1cc(-n2c(=O)c(-c3ccc(F)c(Cl)c3)c(N3CCC(C(F)(F)F)CC3)n(CC#N)c2=O)cc(=O)[nH]1 [Compound I-162]	0.01 to 0.1	0.1 to 1	–	–	–
Cc1cc(-n2c(=O)c(-c3ccc(F)c(Cl)c3)c(N3CC4(C3)CC(F)(F)C4)n(CC#N)c2=O)cc(=O)[nH]1 [Compound I-163]	< 0.01	–	–	0.1 to 1	–
Cc1[nH]ncc1-n1c(=O)c(Cc2cc(F)c(F)c(F)c2)c(N2Cc3ccccc3C2)n(CC#N)c1=O [Compound I-164]	> 0.1	–	–	< 0.1	0.1 to 1
N#CCn1c(N2Cc3ccccc3C2)c(C(=O)c2cc(F)c(F)c(F)c2)c(=O)n(-c2cncc(Cl)c2)c1=O [Compound I-165]	3.8	–	0.228	–	–
CC1(C)CCN(c2c(-c3ccc(F)c(Cl)c3)c(=O)n(-c3cc4n(c(=O)c3)CCC4)c(=O)n2CC#N)CC1 [Compound I-166]	> 0.1	–	–	1 to 5	–
N#CCn1c(N2Cc3ccccc3C2)c(Sc2cc(F)c(F)c(F)c2)c(=O)n(-c2cncc(Cl)c2)c1=O [Compound I-167]	0.049	–	0.0263	–	–
N#CCn1c(-c2cc3ccccc3s2)c(Sc2cc(F)c(F)c(F)c2)c(=O)n(-c2cncc(Cl)c2)c1=O [Compound I-168]	0.01 to 0.1	< 0.1	–	–	–
N#CCn1c(N2CCC(F)(F)CC2)c(-c2cccc(C#N)c2)c(=O)n(-c2cncc(Cl)c2)c1=O [Compound I-169]	0.01 to 0.1	< 0.1	–	–	–
